# Laboratory results: patent US20110124715A1, “Antiviral Oligonucleotides Having a Conserved G4 Core Sequence” (priority 1992, published 2011)
# “And” between values parts separate entries of the source, which are not always exact repeats. Equal entries are not always repeated. Where two headings read alike, the source gives them in different places. Marks after values point to notes of the source that are not given here. Strand notation (5' to 3'): a small letter for the sugar, then the base; units joined by * are phosphorothioate-linked, units joined directly phosphodiester-linked; [ ] holds rarer units or linkages, { } end groups; capitals alone tell only the bases. [I] = hypoxanthine (inosine); d = 2'-deoxy (DNA)
# What was measured:
# HIV-1IIIB [1] = test system: HIV-1IIIB
# HIV-1IIIB [2] = assay: Acute HIV infection assay (XTT, CEM cells); conditions: Table 3; for IC50: inhibition of HIV
# [3] = test system: human T-lymphoblastoid CEM cell line
# HSV-1 (KOS) [4] = assay: HSV-1 infection ELISA assay; assay type: cell-based, herpes simplex virus
# [5] = test system: human cytomegalovirus (HCMV); assay type: cell-based
# HSV-1 (KOS) [6] = assay: HSV-1 virus yield assay; assay type: cell-based, herpes simplex virus; design: dose or concentration left out as unconfirmed; conditions: compared with Acyclovir
# [7] = Fraction tetramer by size exclusion chromatography; assay type: physicochemical; conditions: Table 16; asterisk = more than one aggregate species
# HIV-1 [8] = test system: HIV-1
# HIV-1 [9] = conditions: for inhibition of binding: 5 μM oligonucleotide
# [10] = target: T1, human type II phospholipase A2 (Homo sapiens, UniProt P14555); assay: Phospholipase A2 assay, 3H-oleic acid labelled E. coli substrate; assay type: biochemical
# T1 sequence (P14555 21-144): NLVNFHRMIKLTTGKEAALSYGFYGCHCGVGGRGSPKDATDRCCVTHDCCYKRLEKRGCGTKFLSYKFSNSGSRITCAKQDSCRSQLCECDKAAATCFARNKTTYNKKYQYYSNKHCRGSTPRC
# CD4/gp120 interaction = CD4/gp120 interaction (Human immunodeficiency virus type 1 group M subtype B, UniProt P03375); conditions: concentrations 10,000-fold above its IC50; Callahan et al.; cited from earlier work
# gp120 = gp120 (Human immunodeficiency virus type 1 group M subtype B, UniProt P03375); conditions: read-out: dissociation constant (Kd); immobilized gp120; FIG. 16
# CD4 [11] = target: T2, CD4 (Homo sapiens, UniProt P01730); assay: Immunofluorescent flow cytometry, anti-CD4 mAb on CEM-T4 cells; assay type: cell-based
# [12] = test system: chronically infected (H9 IIIB) cell models; assay: Chronically infected cell models; assay type: cell-based, human immunodeficiency virus; conditions: data not shown
# HIV = assay type: cell-based; conditions: data not shown
# human CD44 = target: T3, human CD44 (Homo sapiens, UniProt P16070); assay: Immunofluorescent flow cytometry, anti-CD44 mAb; assay type: cell-based
# T3 construct: endogenous in cells; host or cells: HeLa cells harboring an HIV-1 env gene
# V3 loop region of gp120 = V3 loop region of gp120 (Human immunodeficiency virus type 1 group M subtype B, UniProt P03375)
# CD4 [13] = target: T2, CD4; assay type: binding
# [14] = Table 1, 50% inhibition of HSV replication relative to control infected cells
# [15] = Table 12, inosine-substituted oligonucleotides against HSV
# T3 sequence (P16070 21-361 isoform P16070-12 limits assumed): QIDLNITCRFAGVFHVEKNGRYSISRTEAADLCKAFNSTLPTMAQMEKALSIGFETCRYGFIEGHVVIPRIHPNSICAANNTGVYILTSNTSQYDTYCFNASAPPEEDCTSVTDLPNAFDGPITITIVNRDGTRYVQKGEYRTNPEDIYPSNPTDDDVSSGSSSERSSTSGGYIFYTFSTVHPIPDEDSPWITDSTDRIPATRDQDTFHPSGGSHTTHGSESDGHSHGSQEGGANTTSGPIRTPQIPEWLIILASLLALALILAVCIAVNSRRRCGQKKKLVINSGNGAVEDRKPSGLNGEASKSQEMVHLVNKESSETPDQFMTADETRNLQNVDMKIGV
molecule,measurement,setting,value
"5666 (DNA TTGGGGTTGGGGTTGGGG; phosphodiester, further chemistry not given here) [compound 5666]",TI (TC50/IC50),HIV-1IIIB [1],100
5669 (DNA GGGGTTGGGGTTGGGG; unmodified DNA) [compound 5669],IC50,HIV-1IIIB [2],1.2 µM
same,TI (TC50/IC50),HIV-1IIIB [1],9
same,TC50,[3],9.6 µM
5674 (DNA dT*dT*dG*dG*dG*dG*dT*dT*dG*dG*dG*dG) [compound 5674],TC50,[3],>200 µM
5675 (DNA dT*dT*dG*dG*dG*dG*dT*dT*dG*dG*dG*dG*dT*dT) [compound 5675],TI (TC50/IC50),HIV-1IIIB [1],36
same,TC50,[3],14 µM
"5651 (TTGGGGTTGGGGTTGGGGTTGGGG; phosphorothioate, further chemistry not given here) [compound 5651]",TI (TC50/IC50),HIV-1IIIB [1],175
same,TC50,[3],"19, 19 μM"
"5367 (TTGGGGTTGGGGTTGGGGTTGGGGG; phosphodiester, further chemistry not given here) [compound 5367]",TI (TC50/IC50),HIV-1IIIB [2],400
same,IC50,HIV-1IIIB [2],0.09 µM and 0.13 µM
same,EC50,HSV-1 (KOS) [4]; [14],> 4 µM
same,TC50,[3],52 µM
same,IC50,[5],> 2 µM
TT GGGG TT GGGG TT GGGG TT GGGG (TTGGGGTTGGGGTTGGGGTTGGGG; chemistry not fully specified) [ISIS 5651],"antiviral activity, virus yield",HSV-1 (KOS) [6],greater antiviral activity than did Acyclovir
TsTsGsGsGsGsTsT [TsTsGsGsGsGsTsT heat denatured],% tetramer,[7],0%
same,IC50,"HIV-1 [8]; Table 16, acute HIV assay",inactive
same,inhibition of binding,HIV-1 [9],showed inhibition of binding
"4721 (CACGGGGTCG; phosphorothioate, further chemistry not given here) [compound 4721]",TI (TC50/IC50),HIV-1IIIB [1],546
same,TC50,[3],142 µM
GsGsGsGsT,% tetramer,[7],61* %
same,IC50,"HIV-1 [8]; Table 16, acute HIV assay",1.4 µM
5676 (DNA dG*dG*dG*dG*dT*dT*dG*dG*dG*dG*dT*dT*dG*dG*dG*dG) [compound 5676],TI (TC50/IC50),HIV-1IIIB [1],114
"TGTGTGTG [ISIS 6071, reference compound]",% tetramer,[7],0%
same,IC50,"HIV-1 [8]; Table 16, acute HIV assay",inactive
same,inhibition of binding,HIV-1 [9],showed inhibition of binding
"5653 (TTGGGGTTGGGGTTGGGG; phosphorothioate, further chemistry not given here) [compound 5653]",IC50,HIV-1IIIB [2],0.19 µM
same,TC50,[3],27 µM
"5590 (GGGGTTGGGG; phosphodiester, further chemistry not given here) [compound 5590]",IC50,HIV-1IIIB [2],> 25 µM
same,EC50,HSV-1 (KOS) [4]; [14],> 3 µM
same,TC50,[3],20 µM
ToToGsGsGsGoToT,% tetramer,[7],72%
same,IC50,"HIV-1 [8]; Table 16, acute HIV assay",inactive
TGG GG [ISIS 5544],% tetramer,[7],57* %
same,IC50,"HIV-1 [8]; Table 16, acute HIV assay",inactive
same,inhibition of enzyme activity,[10]; 1 μM,50%
same,inhibition of enzyme activity,[10]; 3 μM,complete inhibition
α-ToToGoGoGoGoToT,% tetramer,[7],97%
same,IC50,"HIV-1 [8]; Table 16, acute HIV assay",inactive
TT GGGG [ISIS 5739],% tetramer,[7],40* %
same,IC50,"HIV-1 [8]; Table 16, acute HIV assay",13 µM
"5309 (GTTGGAGACCGNGTTGGGG; inosine substitution, further chemistry not given here) [compound 5309]",EC50,HSV-1 (KOS) [4]; [15],> 3 µM
GsGsGsGsTsT,% tetramer,[7],94* %
same,IC50,"HIV-1 [8]; Table 16, acute HIV assay",0.5 µM
5667 (DNA TTGGGGTTGGGGTT; unmodified DNA) [compound 5667],IC50,HIV-1IIIB [2],> 22 µM
same,TC50,[3],5.6 µM
dextran sulfate,effect on gp120/CD4 interaction,CD4/gp120 interaction,does not prevent the gp120/CD4 interaction
"5649 (TTGGGGTTGGGGTTGGGGTTGGGG; phosphodiester, further chemistry not given here) [compound 5649]",EC50,HSV-1 (KOS) [4]; [14],> 3 µM
same,TI (TC50/IC50),HIV-1IIIB [1],300
5668 (DNA TTGGGGTTGGGG; unmodified DNA) [compound 5668],IC50,HIV-1IIIB [2],> 21 µM
same,TC50,[3],5.2 µM
5677 (DNA dG*dG*dG*dG*dT*dT*dG*dG*dG*dG*dT*dT*dG*dG*dG*dG*dT*dT*dG*dG*dG*dG) [compound 5677],TI (TC50/IC50),HIV-1IIIB [1],146
TsTsGoGoGoGsTsT,% tetramer,[7],80%
same,IC50,"HIV-1 [8]; Table 16, acute HIV assay",5 µM
"5650 (TTGGGGTTGGGGTTGGGGTT; phosphodiester, further chemistry not given here) [compound 5650]",IC50,HIV-1IIIB [2],0.64 µM
same,EC50,HSV-1 (KOS) [4]; [14],> 3 µM
same,TI (TC50/IC50),HIV-1IIIB [1],12
same,TC50,[3],7.6 µM
T2A4T2-biotin,Kd,gp120,~260 µM
"5652 (TTGGGGTTGGGGTTGGGGTT; phosphorothioate, further chemistry not given here) [compound 5652]",TI (TC50/IC50),HIV-1IIIB [2],227
TT GGGG TT [ISIS 5320],effect on binding of antibodies to CD4,CD4 [11],Neither oligonucleotide significantly decreased binding
same,effect on chronically infected cells,[12],had no effect
same,IC50,"HIV-1 [8]; Table 15, μM of oligonucleotide strand to inhibit 50% of virus-induced cell killing, error ±0.1 μM",0.3 µM
same,IC50,"HIV-1 [8]; Table 16, acute HIV assay, listed as TsTsGsGsGsGsTsT",0.3 µM
same,antiviral activity after heat denaturation of the tetrameric complex,HIV-1 [8]; data not shown,loss of activity
same,production of intracellular PCR-amplifiable DNA,HIV,inhibited production of intracellular PCR-amplifiable DNA
same,effect on binding of antibodies to human CD44,human CD44,Neither oligonucleotide significantly decreased binding
same,effect on binding of antisera to gp120,V3 loop region of gp120,interferes with binding of antisera directed against the V3 loop region of gp120
same,IC50,"HIV-1 [9]; read-out: concentration reducing virus production to 50% of control, tetramer form, infection after 48 hours, data not shown",~0.4 µM
"5297 (CACGAAAGGCATGACCGNGGC; DNA, [I] at 18, backbone not given here) [compound 5297]",EC50,HSV-1 (KOS) [4]; [15],> 3 µM
"Nc1nc2c(ncn2COCCO)c(=O)[nH]1 [ACV, 9-(2-hydroxyethoxymethyl) guanine, reference compound]",activity against HSV-1,HSV-1 (KOS) [4]; FIG. 8 and FIG. 9,"more active than a control oligonucleotide, ISIS 3383"
"5366 (TTGGGGTTGGGGTTGGGGTTGGGGG; phosphorothioate, further chemistry not given here) [compound 5366]",TI (TC50/IC50),HIV-1IIIB [2],220
same,TC50,[3],22 µM
α-TsTsGsGsGsGsTsT,% tetramer,[7],98%
same,IC50,"HIV-1 [8]; Table 16, acute HIV assay",0.5 µM
TsToGsGoGsGoTsT,% tetramer,[7],83%
same,IC50,"HIV-1 [8]; Table 16, acute HIV assay",5.3 µM
"5295 (GTTGGAGACCGGGNTTGGGG; DNA, [I] at 14, backbone not given here) [compound 5295]",EC50,HSV-1 (KOS) [4]; [15],> 3 µM
GG GG [ISIS 4803],% tetramer,[7],29* %
"5310 (GTTGGAGACCGGGGTTGGGN; DNA, [I] at 20, backbone not given here) [compound 5310]",EC50,HSV-1 (KOS) [4]; [15],0.4 µM
TsTsGsGsGsGsTsTsB,% tetramer,[7],85%
same,IC50,"HIV-1 [8]; Table 16, acute HIV assay",0.4 µM
same,Kd,CD4 [13],~25 µM
"5544 (GGGTGGGTATAG; phosphorothioate, further chemistry not given here) [compound 5544]",EC50,HSV-1 (KOS) [4]; [14],> 3 µM
same,% Inhibition (1 μM),"[10]; Table 5, 1 μM, two separate experiments",50%
5670 (DNA GGGGTTGGGGTTGGGGTTGGGG; unmodified DNA) [compound 5670],EC50,HSV-1 (KOS) [4]; [14],> 3 µM
same,TC50,[3],15 µM
ToTsGoGsGoGsToT,% tetramer,[7],9%
same,IC50,"HIV-1 [8]; Table 16, acute HIV assay",inactive
